According to PubChem BioAssay AID743388 (Vanderbilt Specialized Chemistry Center, 2014):
Several values for one entry are separate records, joined by “and”; a condition that tells them apart may be missing. Equal entries are not always repeated. Activity calls are given as the source filed them. The rule behind the calls is not given here.

Molecular target: Phospholipase D1 (Homo sapiens) (UniProt Q13393)
Test: cellular phospholipase D1 activity inhibition – cell-based (AID 743388)
Settings: Calu-1 cells, PMA-stimulated, PtdBuOH-d9 by mass spectrometry, 30 min; at 20 µM; hits give high values

Sequence of Phospholipase D1 (Homo sapiens) (Q13393 whole entry, looked up): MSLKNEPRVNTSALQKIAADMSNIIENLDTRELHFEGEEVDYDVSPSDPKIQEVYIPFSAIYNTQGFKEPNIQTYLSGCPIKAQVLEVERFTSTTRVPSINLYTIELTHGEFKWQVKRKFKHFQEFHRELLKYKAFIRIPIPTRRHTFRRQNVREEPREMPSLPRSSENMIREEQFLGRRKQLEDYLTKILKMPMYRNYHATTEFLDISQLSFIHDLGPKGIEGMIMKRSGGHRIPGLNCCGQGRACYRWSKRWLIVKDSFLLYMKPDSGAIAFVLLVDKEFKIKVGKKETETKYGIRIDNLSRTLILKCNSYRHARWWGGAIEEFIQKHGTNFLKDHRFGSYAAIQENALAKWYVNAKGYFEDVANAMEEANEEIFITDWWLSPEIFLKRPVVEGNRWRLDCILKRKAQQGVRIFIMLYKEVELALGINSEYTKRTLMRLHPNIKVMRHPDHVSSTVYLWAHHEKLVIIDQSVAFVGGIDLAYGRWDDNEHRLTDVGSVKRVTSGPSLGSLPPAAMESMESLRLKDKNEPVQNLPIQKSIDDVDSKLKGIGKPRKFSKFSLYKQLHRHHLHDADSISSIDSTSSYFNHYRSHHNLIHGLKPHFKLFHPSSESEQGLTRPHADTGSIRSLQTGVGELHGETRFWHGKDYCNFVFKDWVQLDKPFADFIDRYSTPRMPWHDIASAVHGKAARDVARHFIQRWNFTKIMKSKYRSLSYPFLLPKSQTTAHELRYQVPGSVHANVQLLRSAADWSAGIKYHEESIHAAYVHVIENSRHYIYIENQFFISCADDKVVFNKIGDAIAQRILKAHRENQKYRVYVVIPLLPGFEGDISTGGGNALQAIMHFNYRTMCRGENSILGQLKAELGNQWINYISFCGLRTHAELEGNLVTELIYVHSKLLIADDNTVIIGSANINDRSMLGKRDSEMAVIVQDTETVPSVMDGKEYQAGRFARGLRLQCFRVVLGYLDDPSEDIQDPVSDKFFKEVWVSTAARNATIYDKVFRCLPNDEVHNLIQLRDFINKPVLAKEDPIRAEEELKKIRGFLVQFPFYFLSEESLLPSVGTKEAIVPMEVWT

SMILES: O=C(NCCN1CCC2(CC1)C(=O)NCN2Cc1cccnc1)c1ccc(C(F)(F)F)cc1
- inhibition: 0% (inactive)

SMILES: O=C(NCCN1CCC2(CC1)C(=O)NCN2Cc1ccc(Cl)cc1)c1ccc2ccccc2c1
- inhibition: 64%

SMILES: O=C(NCCN1CCC2(CC1)C(=O)NCN2c1cncc(F)c1)c1ccc(Br)cc1
- inhibition: 12% (inactive)

SMILES: O=C(NCCN1CCC2(CC1)C(=O)NCN2Cc1cccc(Cl)c1)c1ccc2ccccc2c1
- inhibition: 89%

SMILES: O=C(NCCN1CCC2(CC1)C(=O)NCN2c1cncc(F)c1)c1cc(F)c(F)c(F)c1
- inhibition: 17% (inactive)

SMILES: O=C(NCCN1CCC2(CC1)C(=O)NCN2Cc1cccnc1)c1ccc(Br)cc1
- inhibition: 9% (inactive)

SMILES: O=C(NCCN1CCC2(CC1)C(=O)NCN2Cc1cccnc1)c1c(Cl)cncc1Cl
- inhibition: 20% (inactive)

SMILES: O=C(NCCN1CCC2(CC1)C(=O)NCN2Cc1cccnc1)c1cc(F)c(F)c(F)c1
- inhibition: 0% (inactive)

SMILES: O=C(NCCN1CCC2(CC1)C(=O)NCN2c1cncc(F)c1)c1ccc(F)c(F)c1
- inhibition: 17% (inactive)

SMILES: O=C(NCCN1CCC2(CC1)C(=O)NCN2Cc1cccnc1)c1ccc2c(c1)C(=O)NC2=O
- inhibition: 13% (inactive)

SMILES: O=C(NCCN1CCC2(CC1)C(=O)NCN2Cc1cccnc1)c1ccc(Cl)c(Cl)c1
- inhibition: 13% (inactive)

SMILES: O=C(NCCN1CCC2(CC1)C(=O)NCN2Cc1cccnc1)c1nccc2ccccc12
- inhibition: 0% (inactive)

SMILES: O=C(NCCN1CCC2(CC1)C(=O)NCN2Cc1cccnc1)c1c(F)ccc(Cl)c1F
- inhibition: 0% (inactive)

SMILES: O=C(NCCN1CCC2(CC1)C(=O)NCN2Cc1cccnc1)c1c[nH]c2ccccc12
- inhibition: 25% (inactive)

SMILES: O=C(NCCN1CCC2(CC1)C(=O)NCN2c1cccnc1)c1cc2cc(F)ccc2[nH]1
- inhibition: 9% (inactive)

SMILES: O=C(NCCN1CCC2(CC1)C(=O)NCN2Cc1ccccc1)c1ccc2ccccc2c1
- inhibition: 72%

SMILES: O=C(NCCN1CCC2(CC1)C(=O)NCN2Cc1cccnc1)c1cc2ccccc2[nH]1
- inhibition: 64%

SMILES: O=C(NCCN1CCC2(CC1)C(=O)NCN2C(=O)c1ccccc1)c1ccc2ccccc2c1
- inhibition: 45% (inactive)

SMILES: O=C(NCCN1CCC2(CC1)C(=O)NCN2C(=O)c1cccc(F)c1)c1ccc2ccccc2c1
- inhibition: 50%

SMILES: O=C(NCCN1CCC2(CC1)C(=O)NCN2c1cccnc1)c1ccc2ccccc2c1
- inhibition: 7% (inactive)

SMILES: O=C(NCCN1CCC2(CC1)C(=O)NCN2Cc1cccnc1)c1ccc(F)cc1Cl
- inhibition: 0% (inactive)

SMILES: O=C(NCCN1CCC2(CC1)C(=O)NCN2c1cncc(F)c1)c1cc2cc(F)ccc2[nH]1
- inhibition: 26% (inactive)

SMILES: O=C(NCCN1CCC2(CC1)C(=O)NCN2Cc1cccnc1)c1ccc(F)cc1C(F)(F)F
- inhibition: 0% (inactive)

SMILES: O=C(NCCN1CCC2(CC1)C(=O)NCN2Cc1cccc(OC(F)(F)F)c1)c1ccc2ccccc2c1
- inhibition: 10% (inactive)

SMILES: O=C(NCCN1CCC2(CC1)C(=O)NCN2Cc1ccccc1F)c1ccc2ccccc2c1
- inhibition: 77% and 87%

SMILES: O=C(NCCN1CCC2(CC1)C(=O)NCN2Cc1cccnc1)c1ccnc2ccccc12
- inhibition: 13% (inactive)

SMILES: O=C(NCCN1CCC2(CC1)C(=O)NCN2Cc1ccccn1)c1ccc2ccccc2c1
- inhibition: 88%

SMILES: O=C(NCCN1CCC2(CC1)C(=O)NCN2Cc1cccnc1)c1ccc2ccccc2n1
- inhibition: 11% (inactive)

SMILES: Cc1nc2sc(C(=O)NCCN3CCC4(CC3)C(=O)NCN4Cc3cccnc3)c(N)c2c(C)c1C
- inhibition: 9% (inactive)

SMILES: O=C(NCCN1CCC2(CC1)C(=O)NCN2c1ccnc(F)c1)c1ccc2ccccc2c1
- inhibition: 3% (inactive)

SMILES: O=C(NCCN1CCC2(CC1)C(=O)NCN2Cc1cccnc1)c1cc2cccnc2[nH]1
- inhibition: 16% (inactive)

SMILES: O=C(NCCN1CCC2(CC1)C(=O)NCN2Cc1ccccc1Cl)c1ccc2ccccc2c1
- inhibition: 91%

SMILES: Cn1cc(C(=O)NCCN2CCC3(CC2)C(=O)NCN3Cc2cccnc2)c2ccccc21
- inhibition: 5% (inactive)

SMILES: O=C(NCCN1CCC2(CC1)C(=O)NCN2Cc1cccnc1)c1ccccc1F
- inhibition: 0% (inactive)

SMILES: O=C(NCCN1CCC2(CC1)C(=O)NCN2C(=O)C1CC1)c1ccc2ccccc2c1
- inhibition: 83%

SMILES: O=C(NCCN1CCC2(CC1)C(=O)NCN2Cc1cccnc1)c1ccc2ccccc2c1
- inhibition: 37% (inactive) and 38% (inactive)

SMILES: O=C(NCCN1CCC2(CC1)C(=O)NCN2c1cccnc1)c1ccc(F)cc1
- inhibition: 7% (inactive)

SMILES: O=C(NCCN1CCC2(CC1)C(=O)NCN2Cc1cccnc1)c1ccc(F)cc1F
- inhibition: 7% (inactive)

SMILES: O=C(NCCN1CCC2(CC1)C(=O)NCN2CC1CC1)c1ccc2ccccc2c1
- inhibition: 43% (inactive)
